Reference: patent US8758822B2, “Method for manufacturing uniform size polymeric nanoparticles containing poorly soluble drugs” (Korea Research Institute of Bioscience and Biotechnology, priority 2008, dated 2014)

How the values were obtained:
ICR rats = test: Acute toxicity test; assay type: in vivo; conditions: for Fatality rate / No. of dead rats: after 1 week
Description: Acute toxicity was investigated upon administering the PLGA-BDD nanoparticles of the present invention prepared via Example 2.

[1] = tested on: carbon tetrachloride-induced liver damage; conditions: administered 2 weeks, CCl4 continued to 3 and 4 weeks; FIGS. 6 and 7
Protocol: (§1) 1. For Group 1 (control group), 0.75 ml/kg of carbon tetrachloride was injected each time into the peritoneal cavity 2 times a week (Mondays & Fridays) for 4 weeks, and no additional compounds was administered any more.

[2] = taken as a form of tablet; cited from earlier work
[3] = tested on: carbon tetrachloride-induced liver damage; test: Treatment effects on carbon tetrachloride-induced liver damage; assay type: in vivo, Sprague Dawley rats; conditions: blood serum after 4 weeks; for Relative concentration of ALT against the control group: 25 mg/kg oral; for ALT* (average ALT concentration ± deviation): 25 mg/kg oral once a day, 6 times a week, CCl4 0.75 ml/kg i.p. 2 times a week
Protocol: 6-week old 20 male Sprague Dawley rats (Orient Bio, Korea) were weighed and distributed to 4 groups 5 to each group to be equal in average weight and degree of dispersion. Under the condition of 23±2′C of temperature and 55±5% of relative humidity in an animal facility, 0.75 ml/kg of 50% solution (v/v) (Sigma-Aldrich, USA) of liver toxic carbon tetrachloride (CCl4) mixed with corn oil was injected each time into the peritoneal cavity 2 times a week (Mondays & Fridays) for 4 weeks.
as §1
(§2) 2. For Group 2, in addition to the 0.75 ml/kg of carbon tetrachloride injection each time into the peritoneal cavity 2 times a week (Mondays & Fridays) for 4 weeks, BDD equivalent to 25 mg per 1 kg of body weight of each rat, which was suspended in 1% (w/v) of CMC (carboxylmethyl cellulose sodium salt, Sigma-Aldrich, USA) solution were orally administered each time once a day, 6 times a week for 4 weeks.
as §2, with “3.” for “2.”, “3,” for “2,”, “BDD-containing polymeric nanoparticles of the present invention prepared via Example 2” for “BDD”, “were” for “was”, “(Carboxylmethyl” for “(carboxylmethyl”
4. For Group 4 (no treatment group), no carbon tetrachloride and compounds were administered.
In detail, after 4 weeks, each animal was anesthetized by injecting 4% of 4 ml-chloral hydrate (BDH Laboratory Supplies, U.K.) Into the peritoneal cavity, and blood was taken out from the heart and left at a room temperature for an hour. After then, blood serum was obtained by spinning down at 16000 rpm for 20 minutes, and ALT and AST concentrations were measured by an automatic blood biochemistry analyzer (HITACHI 7080, HITACHI, Japan) using an ALT and AST test reagents (TA-Test Wako; WAKO Pure Chemical, Japan).

COC(=O)c1cc(OC)c2c(c1-c1c(C(=O)OC)cc(OC)c3c1OCO3)OCO2 [BDD, biphenyl-dimethyl-dicarboxylate]
Fatality rate (ICR rats; 0.005 g per kg oral): 0% | No. of dead rats (ICR rats; 0.005 g per kg oral): 0 | Fatality rate (ICR rats; 0.1 g per kg oral): 0% | No. of dead rats (ICR rats; 0.1 g per kg oral): 0 | Fatality rate (ICR rats; 0.25 g per kg oral): 0% | No. of dead rats (ICR rats; 0.25 g per kg oral): 0 | Fatality rate (ICR rats; 0.5 g per kg oral): 0% | No. of dead rats (ICR rats; 0.5 g per kg oral): 0 | Fatality rate (ICR rats; 1 g per kg oral): 0% | No. of dead rats (ICR rats; 1 g per kg oral): 0 | LD50 (ICR rats; oral): >2000 mg/kg | inhibiting effect on increase of carbon tetrachloride-induced ALT and AST concentration over time [1]: rebounded after 4 weeks | bioavailability [2]: 20-30% | Relative concentration of ALT against the control group ([3]; Table 2): 42% | ALT* (average ALT concentration ± deviation) ([3]; Table 2): 229.6 ± 99.7 SF IU/l | Relative concentration of ALT against the control group ([3]; Table 3): 52.9% | ALT* (average ALT concentration ± deviation) ([3]; Table 3): 479.7 ± 144.8 SF IU/l
